Numbering of substitutions follows the chain as printed.
What was measured:
[1] = system: TauT^WT and variants; assay: GAA uptake assay; type: cell-based, human; conditions: amino acid substitutions in Gly57, Phe58, Leu306
[2] = target: T1, TauT^WT and variants (Homo sapiens, UniProt P31641, L134C); assay: GAA uptake assay; type: cell-based; conditions: mutation Leu134Cys
T1 sequence (P31641 1-620 L134C): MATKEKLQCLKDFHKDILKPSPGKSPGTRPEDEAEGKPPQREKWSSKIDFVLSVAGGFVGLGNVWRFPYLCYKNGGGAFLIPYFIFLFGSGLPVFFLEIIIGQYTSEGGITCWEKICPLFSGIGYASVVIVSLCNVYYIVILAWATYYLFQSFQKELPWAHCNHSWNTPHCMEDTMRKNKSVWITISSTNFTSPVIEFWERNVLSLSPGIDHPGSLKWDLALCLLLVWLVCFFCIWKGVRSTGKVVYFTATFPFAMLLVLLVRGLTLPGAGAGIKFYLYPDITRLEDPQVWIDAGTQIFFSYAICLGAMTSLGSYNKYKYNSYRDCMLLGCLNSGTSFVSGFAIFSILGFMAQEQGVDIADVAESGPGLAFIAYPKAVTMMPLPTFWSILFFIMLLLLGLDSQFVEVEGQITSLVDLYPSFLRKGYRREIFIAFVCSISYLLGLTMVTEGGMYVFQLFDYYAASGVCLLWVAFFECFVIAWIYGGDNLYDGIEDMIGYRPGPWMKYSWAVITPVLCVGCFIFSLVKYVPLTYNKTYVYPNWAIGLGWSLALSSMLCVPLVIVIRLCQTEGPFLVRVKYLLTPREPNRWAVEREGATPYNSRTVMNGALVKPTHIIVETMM

[3] = target: T2, TauT G62A mutant (Homo sapiens, UniProt P31641, G62A); assay: MST binding, TauT G62A; conditions: mean ± s.e.m., n=3
T2 sequence (P31641 1-620 G62A): T1 sequence (P31641 1-620 L134C) with G62A, C134L

[4] = system: TauT^WT and variants; assay: [3H]taurine uptake; type: cell-based, human
[5] = target: T1, TauT^WT and variants; assay: [3H]taurine uptake; type: cell-based; conditions: mutation Leu134Cys
[6] = target: T3, TauT F58A mutant (Homo sapiens, UniProt P31641, F58A); assay: MST binding, TauT F58A; conditions: mean ± s.e.m., n=3
T3 sequence (P31641 1-620 F58A): T1 sequence (P31641 1-620 L134C) with F58A, C134L

[7] = target: T4, TauT S402A mutant (Homo sapiens, UniProt P31641, S402A); assay: MST binding, TauT S402A; conditions: mean ± s.e.m., n=3
T4 sequence (P31641 1-620 S402A): T1 sequence (P31641 1-620 L134C) with C134L, S402A

Structure (SMILES)	transport activity for GAA [1]	transport activity of GAA [2]	Kd (MST) [3]	taurine transport activity ([4]; Asn63, Ser301, Asn333 substituted with alanine or aspartate (Na1 site))	transport activity for taurine ([4]; amino acid substitutions in Gly57, Phe58, Leu306)	taurine transport activity ([4]; mutations in Asp401 and Ser402 (Na2 site))	transport activity of taurine [5]	Kd (MST) [6]	Kd (MST) [7]
[H]/N=C(/N)NCC(=O)O [GAA, guanidinoacetate]	decrease in transport activity	greater transport activity	drastic loss of GAA binding affinity	–	–	–	–	–	–
NCCCC(=O)O [GABA, γ-aminobutyric acid]	–	–	complete loss of the binding	–	–	–	–	–	–
NCCS(=O)(=O)O [Taurine, taurine]	–	–	–	complete loss of function	decrease in transport activity	weaken the substrate transport function	significantly lower transport activity	reduced the taurine binding to varying extents	undetectable binding
